Test results: patent US9504702B2, “Methods of inhibition of protein fucosylation in vivo using fucose analogs” (Seattle Genetics, Inc., priority 2010, dated 2016)
Like-named read-outs stand apart in the source and are kept apart here.

Columns and labels:
[1] = test system: LP-1, a human multiple myeloma cell line (IgG fucosylation); assay: Fucosylation of LP-1-generated IgG, AOL dot blot; assay type: cell-based; details: for % of control fucosylated IgG value / inhibition of IgG fucosylation in human cells (decrease in AOL signal, dot blot) / dot blot results (% fucose signal of control): 100 μM; for % of control fucosylated IgG value / activity at 100 µM: 5 days, AOL dot blot, multiple samples separated by semicolon; for % of control fucosylated IgG value / inhibition of IgG fucosylation in human cells (decrease in AOL signal, dot blot) / activity at 100 µM: LP-1 cells; for dot blot results (% fucose signal of control): LP-1-generated IgG; for activity at 100 µM: Homo sapiens, LP-1, 120 h, read-out: % of control fucosylated IgG value
Protocol: To further evaluate the activities of different fucose analogs, 48 different fucose analogs and other four glycosylation inhibitors were tested for their ability to affect the fucosylation the LP-1-generated IgG. LP-1 cells (250,000 cells/mL, 3 mL per compound in 6-well plates) were incubated with 100 μM of each fucose analog for 5 days at 37° C. with a humidified atmosphere of 5% CO2 in IgG-depleted tissue culture media (90% RPMI with 10% IgG-depleted heat inactivated FBS). The IgG was isolated as described above using only 0.5 mL of MabSelect™ protein A resin slurry and one spin cup per sample with elution in 400 μL of IgG elution buffer into 25 μL of 9 M Tris buffer, pH 9. The eluates were concentrated to 10-20 μL per sample and 2 μL of each of the concentrated eluates were dotted onto a nitrocellulose membrane and stained with Ponceau S to estimate and adjust the sample loading for AOL staining. From this estimation of total protein in each sample, approximately 0.5 μg of each sample was dotted onto the membrane, air-dried, and stained with Ponceau S. An image of this stained membrane was captured using an Alpha Innotech FlourChem® Q system. The membrane was then blocked with 5% Bovine Serum Albumin (BSA) in Tris Buffered Saline (TBS) for 1 hr, washed with TBST (TBS with […]) 3 times and then incubated with 5 μg/ml biotinylated-AOL for 1 hr. The membrane was washed again with TBST 3 times, followed by Streptavidin-HRP incubation for 30 min and final washes with TBST 3 times.

[2] = test system: antibody core fucosylation (CHO DG44 cell line producing humanized IgG1 anti-CD70 antibody h1F6); assay: Inhibition of antibody core fucosylation in CHO DG44 cell culture producing h1F6; assay type: cell-based; details: day 5, CHO DG44 h1F6; for Inhibition at 50 μM: 50 μM fucose analog; for Inhibition at 1 mM / inhibition at 1000 µM: 1 mM fucose analog
Protocol: Fucose analogs have been evaluated for their effect on antibody core fucosylation at concentrations of 50 μM and 1 mM generally as described in Published US Patent Application 2009-0317869. Briefly, the protocol was as follows: A CHO DG44 cell line producing a humanized IgG1 anti-CD70 monoclonal antibody, h1F6 (see International Patent Publication WO 06/113909) was cultured at 7.5×10^5 cells per mL in 2 mLs of CHO culture media at 37°, 5% CO2 and shaking at 100 RPM in a 6 well tissue culture plate. Media was supplemented with insulin like growth factor (IGF), penicillin, streptomycin and either 1 mM or 50 μM of the fucose analog. On day 5 post inoculation, the culture was centrifuged at 13000 RPM for 5 minutes to pellet the cells; antibodies were then purified from supernatant.
Antibody purification was performed by applying the conditioned media to protein A resin pre-equilibrated with 1× phosphate buffered saline (PBS), pH 7.4. After washing resin with 20 resin bed volumes of 1×PBS, antibodies were eluted with 5 resin bed volumes of Immunopure IgG elution buffer (Pierce Biotechnology, Rockford, Ill.). A 10% volume of 1M Tris pH 8.0 was added to neutralize the eluted fraction.

[3] = 120 h, read-out: Inhibition at 50 μM
[4] = CHO-DG44, 120 h, read-out: Inhibition at 50 μM

Row | Molecule | % of control fucosylated IgG value [1] | Inhibition at 50 μM [2] | activity at 100 µM [1] | further results
1 | 1-methyl alkynyl fucose triacetate [SGD-2059] | 89 % of control | 68% |  | Inhibition at 1 mM [2]: >80%
2 | 5-carboxamido fucose tetraacetate [SGD-1995] | 79 % of control |  |  | 
3 | 5-epoxy fucose tetraacetate [SGD-2020] | 5 % of control |  |  | inhibition of IgG fucosylation in human cells (decrease in AOL signal, dot blot) [1]: potentially strong inhibitors; dot blot results (% fucose signal of control) [1]: 5 % fucose signal of control
4 | 6-alkyne-6-acetoxy fucose tetraacetate [SGD-2004] | 29 % of control |  |  | 
5 | CC(=O)OC1C(C)OC(OC(C)=O)C(F)(F)C1OC(C)=O (stereo not drawn) [2-deoxy-2,2-difluorofucopyranose triacetate (alpha)] |  | 0% |  | Inhibition at 1 mM [2]: 64%
6 | CC(=O)OC1C(C)OC(OC(C)=O)C(F)(F)C1OC(C)=O (stereo not drawn) [2-deoxy-2,2-difluorofucopyranose triacetate (beta)] |  | 0% |  | Inhibition at 1 mM [2]: 75%
7 | CC(=O)OC(C#N)[C@H]1OC(OC(C)=O)[C@@H](OC(C)=O)[C@@H]1OC(C)=O (some centres unmarked) [5-cyanoarabinofuranose tetraacetate] |  |  |  | Inhibition at 50 μM [2, 3]: 5 to 10%
8 | CC(=O)OC1OC(C#N)[C@@H](OC(C)=O)[C@@H](OC(C)=O)[C@@H]1OC(C)=O (some centres unmarked) [5-cyanoarabinopyranose tetraacetate] |  |  |  | Inhibition at 50 μM [2, 3]: 20%
9 | CC(=O)OC1OC(CCl)[C@@H](OC(C)=O)[C@@H](OC(C)=O)[C@@H]1OC(C)=O (stereo partly drawn) [6-chloro-fucose tetraacetate, (3S,4R,5S)-6-(chloromethyl)tetrahydro-2H-pyran-2,3,4,5-tetrayl tetraacetate] |  |  |  | Inhibition at 50 μM [2, 4]: 20%; inhibition at 1000 µM ([2]; CHO-DG44, 120 h): 20 to 30%
10 | CC(=O)OC1OC(CI)[C@@H](OC(C)=O)[C@@H](OC(C)=O)[C@@H]1OC(C)=O (stereo partly drawn) [6-iodo-fucose tetraacetate, (3S,4R,5S)-6-(iodomethyl)tetrahydro-2H-pyran-2,3,4,5-tetrayl tetraacetate] |  |  |  | Inhibition at 50 μM [2, 4]: 3%; inhibition at 1000 µM ([2]; CHO-DG44, 120 h): 30%
11 | C#CC1OC(OC(=O)C(C)(C)C)C(OC(=O)C(C)(C)C)C(OC(=O)C(C)(C)C)C1O (centres unmarked) [Alkynyl fucose 1,2,3-(trimethylacetate), 5-ethynylarabinose 1,2,3-(trimethylacetate)] |  | ~0% |  | 
12 | C#CC1OC(OC(=O)C(C)(C)C)C(O)C(OC(=O)C(C)(C)C)C1O (centres unmarked) [Alkynyl fucose di(trimethylacetate), 5-ethynylarabinose 1,3-(trimethylacetate)] |  | >80% |  | 
13 | O=C1O[C@H]([C@@H](O)CO)[C@@H](O)[C@@H]1O [SGD-1931, L-galactono-1,4-lactone] |  |  | 81% | 
14 | CO[C@@H]1O[C@@H](C)[C@@H](O)[C@@H](O)[C@@H]1O [SGD-1932, Methyl a-L-fucopyranoside] | 87 % of control |  |  | 
15 | C#CCNC[C@H](O)[C@@H](O)[C@@H](O)[C@H](O)C=O [SGD-1950, 6-propargylamino fucose] |  |  | 40% | 
16 | CC(=O)OC(CC(=O)O)[C@@H](OC(C)=O)[C@@H](OC(C)=O)[C@@H](C=O)OC(C)=O (some centres unmarked) [SGD-1959, 5-carboxymethyl arabinose tetraacetate] |  |  | 94% | Inhibition at 50 μM [2, 3]: 30%; inhibition at 1000 µM ([2]; 120 h): > 80%
17 | O[C@H]1[C@H](O)[C@@H](O)CN2CC[C@H](O)[C@H]12 [SGD-1960, castanospermine, reference compound] |  |  | 300% | 
18 | CC(=O)O[C@@H]([C@@H](C=O)OC(C)=O)[C@H](OC(C)=O)C(C)(C)OC(C)=O [SGD-1964, 5-methylketo fucose tetraacetate] |  |  | 5% | inhibition of IgG fucosylation in human cells (decrease in AOL signal, dot blot) [1]: potentially strong inhibitors; dot blot results (% fucose signal of control) [1]: 5 % fucose signal of control

Row | Molecule | % of control fucosylated IgG value [1] | Inhibition at 50 μM [2] | activity at 100 µM [1] | further results
19 | CC(=O)OC1O[C@@H](C(C)C)[C@@H](OC(C)=O)[C@@H](OC(C)=O)[C@@H]1OC(C)=O (stereo partly drawn) [SGD-1977, (3S,4R,5R,6S)-6-isopropyltetrahydro-2H-pyran-2,3,4,5-tetrayl tetraacetate] |  |  | 79% | 
20 | C#C[C@@H]1OC(OC(=O)CC)[C@@H](OC(=O)CC)[C@H](OC(=O)CC)[C@@H]1OC(=O)CC (some centres unmarked) [SGD-2010, 5-ethynylarabinose tetrapropropanoate] | 1.5 % of control | >80% |  | inhibition of IgG fucosylation in human cells (decrease in AOL signal, dot blot) [1]: potentially strong inhibitors; Inhibition at 1 mM [2]: >80%
21 | C#CC(OC(=O)CCCCC)[C@@H](OC(=O)CCCCC)[C@@H](OC(=O)CCCCC)[C@@H](C=O)OC(=O)CCCCC (some centres unmarked) [SGD-2012, 5-ethynylarabinose tetrahexanoate] |  |  | 67% | Inhibition at 50 μM [2, 4]: > 80%; inhibition at 1000 µM ([2]; CHO-DG44, 120 h): > 80%
22 | O=C[C@H](O)[C@@H](O)[C@@H](O)[C@H](O)CS [SGD-2025, 6-thio galactose pentaacetate] |  |  | 44% | 
23 | COC(=O)[C@@H]1OC(OC(C)=O)[C@@H](OC(C)=O)[C@H](OC(C)=O)[C@@H]1OC(C)=O (some centres unmarked) [SGD-2061, 6-carboxymethyl ester fucose tetraacetate] | 71 % of control |  |  | 
24 | CCC(=O)[C@H](OC(C)=O)[C@@H](OC(C)=O)[C@@H](OC(C)=O)[C@@H](C=O)OC(C)=O [SGD-2067, 6-keto-6-ethyl fucose tetraacetate] |  |  | 3% | inhibition of IgG fucosylation in human cells (decrease in AOL signal, dot blot) [1]: potentially strong inhibitors; dot blot results (% fucose signal of control) [1]: 3 % fucose signal of control
25 | CC(=O)OC(CCC#N)[C@@H](OC(C)=O)[C@@H](OC(C)=O)[C@@H](C=O)OC(C)=O (some centres unmarked) [SGD-2070, 5-(2-cyanoethyl)arabinose tetraacetate] |  |  | 51% | 
26 | CC(=O)OC[C@@H](OC(C)=O)[C@H](OC(C)=O)[C@H](OC(C)=O)[C@H](C=O)OC(C)=O [SGD-2074, D-galactose pentaacetate] |  |  | 118% | 
27 | CC(=O)OC1C=COC(C)C1OC(C)=O (centres unmarked) [SGD-2080, 1,2-dideoxy-1,2-dehydro fucose diacetate] | 159 % of control |  |  | 
28 | CC(=O)OC1COC(C)C(OC(C)=O)C1OC(C)=O (centres unmarked) [SGD-2081, 1-deoxy fucose triacetate] | 70 % of control |  |  | 
29 | CC(=O)O[C@@H]1[C@H](OC(C)=O)[C@H](C)OC(F)[C@H]1F (some centres unmarked) [SGD-2082, 1,2-difuloro fucose diacetate] | 87 % of control | >80% |  | Inhibition at 1 mM [2]: >80%
30 | CC(=O)OC1CC(OC(C)=O)C(OC(C)=O)C(C)O1 (centres unmarked) [SGD-2108, 6-methyl-tetrahydro-2H-pyran-2,4,5-triyl triacetate] |  |  | 104% | Inhibition at 50 μM [2, 4]: 0%
31 | C[C@H](O)[C@@H](O)[C@@H](O)[C@@H](O)C=O [SGD-2113, 6-deoxy-L-talose] |  |  | 93% | 
32 | alkynyl fucose tetra PEG ester [SGD-2057] | 64 % of control | >80% |  | Inhibition at 1 mM [2]: >80%
33 | alkynyl fucose tetraisobutanoate [SGD-2043] | 34 % of control | >80% |  | Inhibition at 1 mM [2]: >80%
34 | alkynyl fucose tetraisonicotinate [SGD-2058] | 34 % of control | >80% |  | Inhibition at 1 mM [2]: >80%
35 | alkynyl fucose tetranicotinate [SGD-2047] | 50 % of control | >80% |  | Inhibition at 1 mM [2]: >80%
36 | benzyloxy fucose tetraacetate [SGD-2048] | 114 % of control | 0% |  | Inhibition at 1 mM [2]: 75%
